Assay results taken from ChEMBL document CHEMBL5244273, “Tuberculosis: An Overview of the Immunogenic Response, Disease Progression, and Medicinal Chemistry Efforts in the Last Decade toward the Development of Potential Drugs for Extensively Drug-Resistant Tuberculosis Strains” (J Med Chem, 2021).
≈ marks a conversion by molar mass, not a printed value.

Legend:
Assay type in all cases: functional
[1] = test system: Mycobacterium tuberculosis; test: Antitubercular activity against extensively drug resistant Mycobacterium tuberculosis clinical isolate 11 by resazurin microtitre assay
[2] = test system: Mycobacterium tuberculosis; test: Antitubercular activity against extensively drug resistant Mycobacterium tuberculosis clinical isolate 5 by resazurin microtitre assay
[3] = test system: Mycobacterium tuberculosis; test: Antitubercular activity against multidrug resistant Mycobacterium tuberculosis clinical isolate 8 by resazurin microtitre assay
[4] = test system: Mycobacterium tuberculosis; test: Antitubercular activity against multidrug resistant Mycobacterium tuberculosis clinical isolate 7 by resazurin microtitre assay
[5] = test system: Mycobacterium tuberculosis; test: Antimycobacterial activity against extensively-resistant Mycobacterium tuberculosis H37Rv assessed as inhibition of bacterial growth by alamar blue assay
[6] = test system: Mycobacterium tuberculosis; test: Antitubercular activity against multidrug resistant Mycobacterium tuberculosis clinical isolate 3 by resazurin microtitre assay
[7] = test system: Mycobacterium tuberculosis; test: Antitubercular activity against extensively drug resistant Mycobacterium tuberculosis clinical isolate 1 by resazurin microtitre assay
[8] = test system: Mycobacterium tuberculosis; test: Antitubercular activity against multidrug resistant Mycobacterium tuberculosis clinical isolate 9 by resazurin microtitre assay
[9] = test system: Mycobacterium tuberculosis; test: Antitubercular activity against extensively drug resistant Mycobacterium tuberculosis clinical isolate 10 by resazurin microtitre assay
[10] = test system: Mycobacterium tuberculosis; test: Antimycobacterial activity against multidrug resistant Mycobacterium tuberculosis H37Rv
[11] = test system: Mycobacterium tuberculosis; test: Antitubercular activity against extensively drug resistant Mycobacterium tuberculosis clinical isolate 8 by resazurin microtitre assay
[12] = test system: Mycobacterium tuberculosis; test: Antitubercular activity against extensively drug resistant Mycobacterium tuberculosis clinical isolate 7 by resazurin microtitre assay
[13] = test system: Mycobacterium tuberculosis; test: Antitubercular activity against extensively drug resistant Mycobacterium tuberculosis KMRC 0 0203-0 0197 by resazurin microtitre assay
[14] = test system: Mycobacterium tuberculosis; test: Antitubercular activity against multidrug resistant Mycobacterium tuberculosis clinical isolate 1 by resazurin microtitre assay
[15] = test system: Mycobacterium tuberculosis; test: Antitubercular activity against extensively drug resistant Mycobacterium tuberculosis clinical isolate 9 by resazurin microtitre assay
[16] = test system: Mycobacterium tuberculosis; test: Antitubercular activity against multidrug resistant Mycobacterium tuberculosis clinical isolate 10 by resazurin microtitre assay
[17] = test system: Mycobacterium tuberculosis; test: Antitubercular activity against multidrug resistant Mycobacterium tuberculosis clinical isolate 11 by resazurin microtitre assay
[18] = test system: Mycobacterium tuberculosis; test: Antitubercular activity against extensively drug resistant Mycobacterium tuberculosis clinical isolate 6 by resazurin microtitre assay
[19] = test system: Mycobacterium tuberculosis; test: Antitubercular activity against multidrug resistant Mycobacterium tuberculosis clinical isolate 4 by resazurin microtitre assay
[20] = test system: Mycobacterium tuberculosis; test: Antitubercular activity against multidrug resistant Mycobacterium tuberculosis clinical isolate 5 by resazurin microtitre assay
[21] = test system: Mycobacterium tuberculosis; test: Antitubercular activity against extensively drug resistant Mycobacterium tuberculosis clinical isolate 4 by resazurin microtitre assay
[22] = test system: Mycobacterium tuberculosis; test: Antimycobacterial activity against extensively drug resistant Mycobacterium tuberculosis H37Rv
[23] = test system: Mycobacterium tuberculosis; test: Antitubercular activity against multidrug resistant Mycobacterium tuberculosis clinical isolate 6 by resazurin microtitre assay
[24] = test system: Mycobacterium tuberculosis; test: Antimycobacterial activity against multidrug-resistant Mycobacterium tuberculosis H37Rv assessed as inhibition of bacterial growth by alamar blue assay
[25] = test system: Mycobacterium tuberculosis; test: Antitubercular activity against extensively drug resistant Mycobacterium tuberculosis clinical isolate 3 by resazurin microtitre assay
[26] = test system: Mycobacterium tuberculosis; test: Antitubercular activity against extensively drug resistant Mycobacterium tuberculosis clinical isolate 2 by resazurin microtitre assay
[27] = test system: Mycobacterium tuberculosis; test: Antitubercular activity against multidrug resistant Mycobacterium tuberculosis clinical isolate 2 by resazurin microtitre assay
[28] = test system: Mycobacterium tuberculosis; test: Antimycobacterial activity against isoniazid, streptomycin, rifampicin, ethambutol, ethionamide and ofloxacin resistant Mycobacterium tuberculosis clinical isolate H
[29] = test system: Mycobacterium tuberculosis; test: Antimycobacterial activity against isoniazid, streptomycin and ethionamide resistant Mycobacterium tuberculosis clinical isolate F
[30] = test system: Mycobacterium tuberculosis; test: Antimycobacterial activity against isoniazid and ethionamide resistant Mycobacterium tuberculosis clinical isolate E
[31] = test system: Mycobacterium tuberculosis; test: Antimycobacterial activity against isoniazid, streptomycin, and rifampicin resistant Mycobacterium tuberculosis clinical isolate C
[32] = test system: Mycobacterium tuberculosis; test: Antimycobacterial activity against isoniazid, streptomycin, ethambutol and ethionamide resistant Mycobacterium tuberculosis clinical isolate A
[33] = test system: Mycobacterium tuberculosis; test: Antimycobacterial activity against isoniazid and ethionamide resistant Mycobacterium tuberculosis clinical isolate B
[34] = test system: Mycobacterium tuberculosis; test: Antimycobacterial activity against isoniazid, streptomycin, rifampicin, ethambutol and ethionamide resistant Mycobacterium tuberculosis clinical isolate G

Row | Structure (SMILES) | MIC [1] [µg/mL] | MIC [2] [µg/mL] | MIC [3] [µg/mL] | MIC [4] [µg/mL] | MIC [5] [µg/mL] | MIC [6] [µg/mL] | MIC [7] [µg/mL] | MIC [8] [µg/mL] | MIC [9] [µg/mL] | MIC [11] [µg/mL] | MIC [12] [µg/mL] | MIC [13] [µg/mL] | MIC [14] [µg/mL] | MIC [15] [µg/mL] | MIC [16] [µg/mL] | MIC [17] [µg/mL] | MIC [18] [µg/mL] | MIC [19] [µg/mL] | MIC [20] [µg/mL] | MIC [24] [µg/mL] | other results
1 | NNC(=O)c1ccncc1 [ISONIAZID] | 6.25 (≈ 45.6 µM) | 12.5 (≈ 91.1 µM) | 12.5 (≈ 91.1 µM) | 50 (≈ 365 µM) | 50 (≈ 365 µM) | 3.13 (≈ 22.8 µM) | 12.5 (≈ 91.1 µM) | 25 (≈ 182 µM) | > 200 | 12.5 (≈ 91.1 µM) | 6.25 (≈ 45.6 µM) | 25 (≈ 182 µM) | 12.5 (≈ 91.1 µM) | 50 (≈ 365 µM) | 3.13 (≈ 22.8 µM) | 12.5 (≈ 91.1 µM) | 12.5 (≈ 91.1 µM) | 25 (≈ 182 µM) | 12.5 (≈ 91.1 µM) | 6.25 (≈ 45.6 µM) | MIC [10]: 6.25 µg/mL (≈ 45.6 µM); MIC [21]: 12.5 µg/mL (≈ 91.1 µM); MIC [22]: 50 µg/mL (≈ 365 µM); MIC [23]: 25 µg/mL (≈ 182 µM); MIC [25]: 3.13 µg/mL (≈ 22.8 µM); MIC [26]: 3.13 µg/mL (≈ 22.8 µM); MIC [27]: 12.5 µg/mL (≈ 91.1 µM)
2 | Cc1ccc(NC(=O)c2c(Nc3ccc(Cl)cc3)nn3c(O)cc(C)nc23)cc1 |  |  |  |  | > 100 |  |  |  |  |  |  |  |  |  |  |  |  |  |  | 6.25 (≈ 15.3 µM) | 
3 | COc1ccccc1NC(=O)c1c(Nc2cccc(C)c2)nn2c(O)cc(C)nc12 |  |  |  |  | 12.5 (≈ 31 µM) |  |  |  |  |  |  |  |  |  |  |  |  |  |  | 6.25 (≈ 15.5 µM) | 
4 | CN[C@@H]1[C@H](O[C@H]2[C@H](O[C@H]3[C@H](O)[C@@H](O)[C@H](N=C(N)N)[C@@H](O)[C@@H]3N=C(N)N)O[C@@H](C)[C@]2(O)C=O)O[C@@H](CO)[C@H](O)[C@H]1O [STREPTOMYCIN] | 200 (≈ 344 µM) | 50 (≈ 86 µM) | 3.13 (≈ 5.38 µM) | 200 (≈ 344 µM) |  | 0.39 (≈ 0.671 µM) | 0.78 (≈ 1.34 µM) | 25 (≈ 43 µM) | < 0.09 | > 200 | 0.78 (≈ 1.34 µM) | 0.78 (≈ 1.34 µM) | 100 (≈ 172 µM) | 200 (≈ 344 µM) | > 200 | 3.13 (≈ 5.38 µM) | 50 (≈ 86 µM) | 0.78 (≈ 1.34 µM) | 3.13 (≈ 5.38 µM) |  | MIC [28]: > 64 µg/mL; MIC [29]: > 16 µg/mL; MIC [30]: 16 µg/mL (≈ 27.5 µM); MIC [31]: 32 µg/mL (≈ 55 µM); MIC [32]: > 64 µg/mL; MIC [21]: 0.78 µg/mL (≈ 1.34 µM); MIC [23]: 25 µg/mL (≈ 43 µM); MIC [25]: > 200 µg/mL; MIC [26]: 50 µg/mL (≈ 86 µM); MIC [33]: 8 µg/mL (≈ 13.8 µM); MIC [34]: > 64 µg/mL; MIC [27]: 1.56 µg/mL (≈ 2.68 µM)
